# Where two headings read alike, the source gives them in different places.
# Assays:
# BJeLR = assay: Modulatory profiling: Alamar Blue viability, lethal compound cotreated with death modulator (EC50, AUC); assay type: cell-based, human; set-up: AUC, modulator BJ.Gd3+ / AUC, modulator BJ.LNAME / AUC, modulator BJ.Lmin / AUC, modulator BJ.3MA / AUC, modulator BJ.ALLN / AUC, modulator BJ.Boc D / AUC, modulator BJ.CHX / AUC, modulator BJ.Co2+ / AUC, modulator BJ.Nec-1 / AUC, modulator BJ.Pepstatin / AUC, modulator BJ.TLCK / AUC, modulator BJ.atoc / AUC, modulator BJ.trolox / AUC, modulator BJ.zVAD: unit not given beside the values; conditions: BJeLR cells, modulatory profile value (AUC); for AUC, modulator BJ.3MA: lethal compound cotreated with modulator 3MA; for AUC, modulator BJ.ALLN: lethal compound cotreated with modulator ALLN; for AUC, modulator BJ.Boc D: lethal compound cotreated with modulator Boc D; for AUC, modulator BJ.CHX: lethal compound cotreated with modulator CHX; for AUC, modulator BJ.Co2+: lethal compound cotreated with modulator Co2+; for AUC, modulator BJ.DPQ: lethal compound cotreated with modulator DPQ; for AUC, modulator BJ.Gd3+: lethal compound cotreated with modulator Gd3+; for AUC, modulator BJ.LNAME: lethal compound cotreated with modulator LNAME; for AUC, modulator BJ.Lmin/NAD+: lethal compound cotreated with modulator Lmin/NAD+; for AUC, modulator BJ.Lmin: lethal compound cotreated with modulator Lmin; for AUC, modulator BJ.NAD+: lethal compound cotreated with modulator NAD+; for AUC, modulator BJ.NMMA: lethal compound cotreated with modulator NMMA; for AUC, modulator BJ.Nec-1: lethal compound cotreated with modulator Nec-1; for AUC, modulator BJ.Pepstatin: lethal compound cotreated with modulator Pepstatin; for AUC, modulator BJ.TLCK: lethal compound cotreated with modulator TLCK; for AUC, modulator BJ.atoc: lethal compound cotreated with modulator atoc; for AUC, modulator BJ.trolox: lethal compound cotreated with modulator trolox; for AUC, modulator BJ.zVAD: lethal compound cotreated with modulator zVAD; as to AUC, modulator BJ.3MA: reference of the scale not given here; as to AUC, modulator BJ.ALLN: reference of the scale not given here; as to AUC, modulator BJ.Boc D: reference of the scale not given here; as to AUC, modulator BJ.CHX: reference of the scale not given here; as to AUC, modulator BJ.Co2+: reference of the scale not given here; as to AUC, modulator BJ.DPQ: reference of the scale not given here; as to AUC, modulator BJ.Gd3+: reference of the scale not given here; as to AUC, modulator BJ.LNAME: reference of the scale not given here; as to AUC, modulator BJ.NAD+: reference of the scale not given here; as to AUC, modulator BJ.NMMA: reference of the scale not given here; as to AUC, modulator BJ.Nec-1: reference of the scale not given here; as to AUC, modulator BJ.Pepstatin: reference of the scale not given here; as to AUC, modulator BJ.TLCK: reference of the scale not given here
# HT-1080 = assay: as above; assay type: cell-based; set-up: AUC, modulator HT.3MA / AUC, modulator HT.ALLN / AUC HT.ATA / AUC HT.ActD / AUC HT.BHA / AUC HT.BHT / AUC HT.BocD / AUC HT.CHX / AUC HT.Co2+ / AUC HT.DPQ / AUC HT.EGTA / AUC HT.Lmim / AUC HT.NAD+ / AUC HT.Nec-1 / AUC HT.SP600125 / AUC HT.TLCK / AUC HT.U0126: unit not given beside the values; conditions: for AUC HT.ATA: HT-1080, modulator ATA; for AUC HT.ActD: HT-1080, modulator ActD; for AUC HT.BHA: HT-1080, modulator BHA; for AUC HT.BHT: HT-1080, modulator BHT; for AUC HT.BocD: HT-1080, modulator BocD; for AUC HT.CHX: HT-1080, modulator CHX; for AUC HT.Co2+: HT-1080, modulator Co2+; for AUC HT.CspA: HT-1080, modulator CspA; for AUC HT.DPQ: HT-1080, modulator DPQ; for AUC HT.Gd3+: HT-1080, modulator Gd3+; for AUC HT.LNAME: HT-1080, modulator LNAME; for AUC HT.Lmim: HT-1080, modulator Lmim; for AUC HT.NAD+: HT-1080, modulator NAD+; for AUC HT.NMMA: HT-1080, modulator NMMA; for AUC HT.Nec-1: HT-1080, modulator Nec-1; for AUC HT.Pepstatin: HT-1080, modulator Pepstatin; for AUC HT.SP600125: HT-1080, modulator SP600125; for AUC HT.TLCK: HT-1080, modulator TLCK; for AUC HT.U0126: HT-1080, modulator U0126; for HT.atoc (AUC) / HT.bCarotene (AUC) / HT.deferox (AUC) / HT.digoxin (AUC) / HT.trolox (AUC) / HT.zVAD (AUC): HT-1080; for HT.atoc (AUC): modulator atoc; for HT.bCarotene (AUC): modulator bCarotene; for HT.deferox (AUC): modulator deferox; for HT.digoxin (AUC): modulator digoxin; for HT.trolox (AUC): modulator trolox; for HT.zVAD (AUC): modulator zVAD; for AUC, modulator HT.3MA / AUC, modulator HT.ALLN: HT-1080 cells, modulatory profile value (AUC); for AUC, modulator HT.3MA: lethal compound cotreated with modulator 3MA; for AUC, modulator HT.ALLN: lethal compound cotreated with modulator ALLN; as to AUC HT.BHA: reference of the scale not given here; as to AUC HT.EGTA: reference of the scale not given here
compound,measurement,setting,value
COc1cc([C@@H]2c3cc4c(cc3[C@@H](O[C@@H]3O[C@@H]5CO[C@@H](C)O[C@H]5[C@H](O)[C@H]3O)[C@H]3COC(=O)[C@H]23)OCO4)cc(OC)c1O [Etoposide],"AUC, modulator BJ.3MA",BJeLR,−0.06196
same,"AUC, modulator BJ.ALLN",BJeLR,0.06099
same,"AUC, modulator BJ.Boc D",BJeLR,0.0612
same,"AUC, modulator BJ.CHX",BJeLR,0.1255
same,"AUC, modulator BJ.Co2+",BJeLR,0.0951
same,"AUC, modulator BJ.DPQ",BJeLR,−0.0469
same,"AUC, modulator BJ.Gd3+",BJeLR,0.01317
same,"AUC, modulator BJ.LNAME",BJeLR,0.004515
same,"AUC, modulator BJ.Lmin/NAD+",BJeLR,0.1011
same,"AUC, modulator BJ.Lmin",BJeLR,0.04682
same,"AUC, modulator BJ.NAD+",BJeLR,0.08359
same,"AUC, modulator BJ.NMMA",BJeLR,−0.03678
same,"AUC, modulator BJ.Nec-1",BJeLR,−0.04354
same,"AUC, modulator BJ.Pepstatin",BJeLR,0.01632
same,"AUC, modulator BJ.TLCK",BJeLR,0.01399
same,"AUC, modulator BJ.atoc",BJeLR,−0.01038
same,"AUC, modulator BJ.trolox",BJeLR,−0.01808
same,"AUC, modulator BJ.zVAD",BJeLR,0.06084
same,AUC HT.ATA,HT-1080,−0.0363
same,AUC HT.ActD,HT-1080,−0.09944
same,AUC HT.BHA,HT-1080,0.04757
same,AUC HT.BHT,HT-1080,−0.0005481
same,AUC HT.BocD,HT-1080,0.05886
same,AUC HT.CHX,HT-1080,0.113
same,AUC HT.Co2+,HT-1080,0.3926
same,AUC HT.CspA,HT-1080,−0.177
same,AUC HT.DPQ,HT-1080,0.006422
same,AUC HT.EGTA,"HT-1080; HT-1080, modulator EGTA",0.02457
same,AUC HT.Gd3+,HT-1080,0.02668
same,AUC HT.LNAME,HT-1080,0.005444
same,AUC HT.Lmim,HT-1080,0.05001
same,AUC HT.NAD+,HT-1080,0.0527
same,AUC HT.NMMA,HT-1080,0.01603
same,AUC HT.Nec-1,HT-1080,−0.005949
same,AUC HT.Pepstatin,HT-1080,−0.001737
same,AUC HT.SP600125,HT-1080,0.00478
same,AUC HT.TLCK,HT-1080,0.1489
same,AUC HT.U0126,HT-1080,−0.02627
same,HT.atoc (AUC),HT-1080,−0.006276
same,HT.bCarotene (AUC),HT-1080,0.00393
same,HT.deferox (AUC),HT-1080,0.1428
same,HT.digoxin (AUC),HT-1080,0.1311
same,HT.trolox (AUC),HT-1080,0.01328
same,HT.zVAD (AUC),HT-1080,0.03817
same,"AUC, modulator HT.3MA",HT-1080,0.007208
same,"AUC, modulator HT.ALLN",HT-1080,0.03277
Nc1ccccc1NC(=O)c1ccc(CNC(=O)OCc2cccnc2)cc1 [MS275],"AUC, modulator BJ.3MA",BJeLR,−0.02606
same,"AUC, modulator BJ.ALLN",BJeLR,−0.03932
same,"AUC, modulator BJ.Boc D",BJeLR,0.08944
same,"AUC, modulator BJ.CHX",BJeLR,0.2266
same,"AUC, modulator BJ.Co2+",BJeLR,0.2326
same,"AUC, modulator BJ.DPQ",BJeLR,−0.009656
same,"AUC, modulator BJ.Gd3+",BJeLR,0.023
same,"AUC, modulator BJ.LNAME",BJeLR,0.02321
same,"AUC, modulator BJ.Lmin/NAD+",BJeLR,0.1569
same,"AUC, modulator BJ.Lmin",BJeLR,−0.001183
same,"AUC, modulator BJ.NAD+",BJeLR,0.1269
same,"AUC, modulator BJ.NMMA",BJeLR,−0.003779
same,"AUC, modulator BJ.Nec-1",BJeLR,−0.01329
same,"AUC, modulator BJ.Pepstatin",BJeLR,−0.01824
same,"AUC, modulator BJ.TLCK",BJeLR,0.08474
same,"AUC, modulator BJ.atoc",BJeLR,−0.008452
same,"AUC, modulator BJ.trolox",BJeLR,−0.001137
same,"AUC, modulator BJ.zVAD",BJeLR,0.1415
same,AUC HT.EGTA,HT-1080,−0.005811
same,AUC HT.ATA,HT-1080,0.0212
same,AUC HT.ActD,HT-1080,−0.1982
same,AUC HT.BHA,HT-1080,−0.04868
same,AUC HT.BHT,HT-1080,−0.1794
same,AUC HT.BocD,HT-1080,0.02448
same,AUC HT.CHX,HT-1080,−0.1189
same,AUC HT.Co2+,HT-1080,−0.1027
same,AUC HT.CspA,HT-1080,−0.1886
same,AUC HT.DPQ,HT-1080,−0.01058
same,AUC HT.Gd3+,HT-1080,−0.01027
same,AUC HT.LNAME,HT-1080,0.004204
same,AUC HT.Lmim,HT-1080,−0.09728
same,AUC HT.NAD+,HT-1080,0.0008794
same,AUC HT.NMMA,HT-1080,−0.00333
same,AUC HT.Nec-1,HT-1080,−0.05557
same,AUC HT.Pepstatin,HT-1080,−0.01654
same,AUC HT.SP600125,HT-1080,−0.09903
same,AUC HT.TLCK,HT-1080,−0.02404
same,AUC HT.U0126,HT-1080,−0.01884
same,HT.atoc (AUC),HT-1080,−0.01016
same,HT.bCarotene (AUC),HT-1080,−0.03005
same,HT.deferox (AUC),HT-1080,−0.1653
same,HT.digoxin (AUC),HT-1080,−0.1793
same,HT.trolox (AUC),HT-1080,−0.02599
same,HT.zVAD (AUC),HT-1080,0.0222
same,"AUC, modulator HT.3MA",HT-1080,−0.09204
same,"AUC, modulator HT.ALLN",HT-1080,−0.1325

# From patent US10947188B2, “Small molecule ferroptosis inducers” (THE TRUSTEES OF COLUMBIA UNIVERSITY IN THE CITY OF NEW YORK, priority 2016, dated 2021)
